Patent publication US20220387621A1, “TARGETED DELIVERY OF NANOCARRIER-CONJUGATED DOXORUBICIN” (priority 2019, published 2022)

What was measured:
in vivo = conditions: mouse
Method: (§1) All animal studies were performed under the approval of the University of Miami Institutional Animal Care and Use committee. […] For tumor-bearing experiments, DLBCL PDX DFBL-75549 tumor model was obtained and engrafted mice through surgical dorsal tumor implantation. Tumor volume (TV) was measured by ultrasound (Vevo 3100, Visualsonics) with a predetermined survival endpoint of TV>1500 mm3. A continuous body weight loss of >20% was also a predetermined survival endpoint. For dose-finding experiments, mice were dosed intravenously on day 0, day 14, and day 24 and observed for changes in body weight. For R-nanoCHOP vs. R-CHOP tumor-bearing experiments, mice were dosed with all drugs intravenously once on day 1 of every 21 days, with exception to Prednisone administered orally. The following drug doses were used: Rituximab 20 mg/kg, Cyclophosphamide 40 mg/kg, Doxorubicin 3.3 mg/kg, CDT 33 mg/kg, Vincristine 0.5 mg/kg, Prednisone 0.2 mg/kg.
Formalin-fixed paraffin-embedded tissue sections, produced per standard protocols, were used to make H&E-stained and immunohistochemistry (IHC) pathology slides. Antibodies were used as per above, when applicable.

[1] = system: BJAB, Farage, SU-DHL4, and Riva cells; assay: Delayed drug effect viability: 24 h drug, washout, viability tracking over 6 days; assay type: cell-based, human
Method: (§2) For 24-48 hr assessments, cells were seeded at 5000 cells per well in a 96-well plate under serial drug dilutions. For delayed drug effect viability, cells were seeded at 500,000 cells per well in a 6-well plate on day 0 and treated with drug for 24 hrs, after which cells were washed ×2 and plated in normal cell media without drug. Viability was assessed using Cell Titer Glo (Promega #G7573) according to manufacturer's protocol. Luminescence was measured using BioTek Synergy HT plate reader. EC50s were calculated using nonlinear fit regression analysis in GraphPad Prism 8. Apoptosis assessment was conducted with BD Biosciences reagent (#559763) using Attune NxT flow cytometer.

DLBCL PDX tumor = conditions: mouse, in vivo
Method: as §1

BJAB cells = assay: Fluorescent confocal microscopy, nuclear colocalization in BJAB; assay type: cell-based, human; conditions: 24 hours
Method: Cells were seeded at 50,000 cells per well in a 12-well plate and treated with either vehicle or drug. BJAB cells were fixed with 4% paraformaldehyde and permeabilized with 1% NP40 followed by staining for DAPI (Thermofisher Scientific, Waltham, Mass., USA). Cells were then imaged (60×) using a Leica DM4 B microscope. HEK293 cells had the nucleus stained for DAPI (Thermo #R37605) or GFP (Thermo #C10602) per the manufacturer protocol. Cells were live-imaged (63× objective) using Leica Sp5 confocal microscop and images collected and analyzed using ImageJ software.

[2] = system: murine B-lymphoma line A20; assay: 48-hour viability assay of A20 cells; assay type: cell-based; conditions: Mus musculus
Method: as §2

BJAB and Farage cells = assay: 48-hour viability with TFRC overexpression, holo-TF competition or dynasore; assay type: cell-based, human; conditions: 15 μM, 50 μM
Method: as §2
Human TFRC cDNA (HsCD00044911) was purchased from the DNASU Plasmid Repository (Tempe, Ariz., USA) and was subsequently cloned into pLVX-IRES-ZsGreenl vector (Clontech Laboratories, Mountain View, Calif., USA). Recombinant plasmids, together with packaging/envelope plasmids psPAX2 and pMD2.G (Addgene, Cambridge, Mass., USA), were co-transfected into HEK293 cells using Lipofectamine 3000 (Invitrogen, Carlsbad, Calif., USA) following manufacturer's instructions. Cell media was changed at 24 hours after transfection, and viral particles collected at 48 hours and 72 hours post transfection.
For viral transduction, BJAB and Farage cells were infected with harvested virus by spinoculation. […]

SMILES | MTD (in vivo; male, NOD scid gamma (NSG), iv) [mg/kg] | weight loss at MTD (in vivo) [%] | cell viability over time-course after washout [1] | anti-tumor efficacy (OS and tumor volume) (DLBCL PDX tumor) | body weight after two additional doses (DLBCL PDX tumor) | body weight nadir (DLBCL PDX tumor) [days] | return to starting weight (DLBCL PDX tumor) [days] | nuclear colocalization (BJAB cells) | EC50 [2] [µM] | viability, single agent (BJAB and Farage cells)
COc1cccc2c1C(=O)c1c(O)c3c(c(O)c1C2=O)C[C@@](O)(C(=O)CO)C[C@@H]3O[C@H]1C[C@H](N)[C@H](O)[C@H](C)O1 [Dox, doxorubicin] | 3.3 | ~20 | seen only with much higher doses | relatively weak antitumor activity | irreversible weight loss | 8 | 10 to 14 | similar | 0.0106 | –
O=C(N/N=C/c1ccc(O)c(O)c1)c1cc2ccccc2cc1O [dynasore, Dynasore] | – | – | – | – | – | – | – | – | – | negatively affected viability
